Test results taken from ChEMBL document CHEMBL3102825, “Exploration of a series of 5-arylidene-2-thioxoimidazolidin-4-ones as inhibitors of the cytolytic protein perforin” (J Med Chem, 2013).

Assay: Aqueous solubility of the compound
Assay type: physicochemical
Compound O=C1NC(=S)[N-]/C1=C/c1ccc(-c2ccc3c(c2)COC3=O)s1.[Na+] has a solubility of 43 µg/mL. With O=C1NC(=S)[N-]/C1=C/c1ccc(-c2ccc3c(c2)C(=O)NCC3)s1.[Na+] the solubility was 37.2 µg/mL. For O=C1NC(=S)[N-]/C1=C/c1ccc(-c2ccc3c(c2)CCNC3=O)s1.[Na+], the solubility was 1570 µg/mL. For O=C1[N-]/C(=C/c2ccc(-c3ccc4c(c3)CNC4=O)s2)C(=O)N1.[Na+], the solubility was 136 µg/mL. In the case of CC1c2cc(-c3ccc(/C=C4/[N-]C(=S)NC4=O)s3)ccc2C(=O)N1C.[Na+] (stereo not given), the solubility is reported as 1410 µg/mL. In the case of O=C1NC(=S)[N-]/C1=C/c1ccc(-c2ccc3c(c2)CN(CCCO)C3=O)s1.[Na+], the solubility is reported as 10200 µg/mL. Work on CCOC(=O)N1Cc2cc(-c3ccc(/C=C4/[N-]C(=S)NC4=O)s3)ccc2C1=O.[Na+] yielded a solubility of 397 µg/mL. In the case of O=C1NC(=S)[N-]/C1=C/c1ccc(-c2ccc3c(c2)CN(CCO)C3=O)s1.[Na+], the solubility is reported as 3430 µg/mL. In the case of CN1Cc2cc(-c3ccc(/C=C4/[N-]C(=S)NC4=O)s3)ccc2C1=O.[Na+], the solubility is reported as 151 µg/mL. O=C1NC(=S)[N-]/C1=C/c1ccc(-c2ccc3c(c2)CNC3=O)s1.[Na+] showed a solubility of 140 µg/mL.
